Assay: Study 1: cloxacillin in milk after intramammary infusion of Injector 1A
Type: in vivo, cows
Details: single dose, micronised form in an aqueous base
Procedure: A number of studies have been conducted in cows to establish the following : - Study 1: Bioavailability of cloxacillin in bovine colostrum following intramammary infusion of Injector 1A. Study 2: Irritancy of aqueous cloxacillin in the bovine mammary gland.
As a secondary objective plasma levels of Cloxacillin were also measured, in order to assess the extent of systemic absorption.
Eight animals were infused with Injector 1A in all four quarters, and samples of milk were taken at the following intervals post infusion : 0.5, 1, 2, 3, 4, 6, 8, 12, 24, 32, 48, 72, 96, 120 and 144 hours.
Quarter results were recorded for all animals (it was not possible to get samples from two of the quarters due to problems associated with hand milking of animals normally used to being machine milked). […] A peak mean value of 5233.4 mg/L was found at the first sampling interval (0.5 hr) with an approximately exponential decline being noted over the next 72 hours.

Structure (SMILES): Cc1onc(-c2ccccc2Cl)c1C(=O)N[C@@H]1C(=O)N2[C@@H]1SC(C)(C)[C@@H]2C(=O)O [cloxacillin benzathine]
- Tmax (bovine, milk, read-out: time to high initial peak of antibiotic): ≤ 30 min
- duration of therapeutic levels: up to 72 hours
